In the experiment the target is Ubiquitin carboxyl-terminal hydrolase 28 (Homo sapiens) (UniProt Q96RU2). Briefly: Ubiquitin-specific peptidase 28 DUB inhibitors, biochemical concentration-dependence assay, validation of primary screening hits (AID 1645866). The following applies: purified USP28, ubiquitin-rhodamine fluorescence, 30 min.

The source made the active and inactive calls.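 The calls were made as follows: active = in confirmatory dose-response testing, peak deubiquitinase inhibition of 30% or more; inactive = the rest.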

Sequence of Ubiquitin carboxyl-terminal hydrolase 28 (Homo sapiens) (Q96RU2 whole entry, looked up): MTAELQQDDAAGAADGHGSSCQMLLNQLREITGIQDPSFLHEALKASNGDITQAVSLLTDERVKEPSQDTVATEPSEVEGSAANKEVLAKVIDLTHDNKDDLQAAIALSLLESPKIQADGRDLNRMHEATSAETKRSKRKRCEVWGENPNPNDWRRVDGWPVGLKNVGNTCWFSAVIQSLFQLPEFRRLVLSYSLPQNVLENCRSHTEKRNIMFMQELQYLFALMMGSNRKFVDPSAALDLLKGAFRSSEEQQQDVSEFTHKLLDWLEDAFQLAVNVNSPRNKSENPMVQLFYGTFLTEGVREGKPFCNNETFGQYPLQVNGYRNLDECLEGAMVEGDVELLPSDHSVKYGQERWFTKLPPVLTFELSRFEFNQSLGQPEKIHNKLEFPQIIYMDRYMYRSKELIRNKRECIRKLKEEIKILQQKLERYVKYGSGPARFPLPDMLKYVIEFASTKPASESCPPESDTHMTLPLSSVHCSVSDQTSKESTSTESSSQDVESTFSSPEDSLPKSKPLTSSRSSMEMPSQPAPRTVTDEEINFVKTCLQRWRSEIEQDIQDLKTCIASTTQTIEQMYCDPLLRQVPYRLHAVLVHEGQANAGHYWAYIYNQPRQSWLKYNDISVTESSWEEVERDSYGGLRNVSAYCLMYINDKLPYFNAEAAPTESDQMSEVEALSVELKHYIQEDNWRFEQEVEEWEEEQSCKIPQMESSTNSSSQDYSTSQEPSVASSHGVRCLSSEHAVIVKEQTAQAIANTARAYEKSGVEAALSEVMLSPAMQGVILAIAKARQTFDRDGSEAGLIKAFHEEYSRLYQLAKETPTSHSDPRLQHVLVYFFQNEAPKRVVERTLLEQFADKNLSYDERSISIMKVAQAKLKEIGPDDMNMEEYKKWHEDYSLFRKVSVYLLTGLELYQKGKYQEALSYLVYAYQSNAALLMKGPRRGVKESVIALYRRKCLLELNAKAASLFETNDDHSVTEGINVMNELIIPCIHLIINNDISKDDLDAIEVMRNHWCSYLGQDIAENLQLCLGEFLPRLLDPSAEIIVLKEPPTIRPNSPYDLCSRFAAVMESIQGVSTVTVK

With `COc1ccc(NC(=O)C2CC(=O)Nc3cc(-c4ccccc4)nn32)cc1` (centres undefined), the IC50 is 21.7 µM.
For `CCOc1ccccc1NC(=O)Cn1c(=O)n(CCCC(=O)NCc2ccc(C)cc2)c(=O)c2sccc21`, the IC50 was 1.98 µM.
Take `COc1ccc(S(=O)(=O)N(C)Cc2cccs2)cc1OC`: the IC50 is 17.4 µM.
Regarding `COc1cccc2c1NC(=O)C21CCN(C(=O)Nc2cccc3ccccc23)CC1`, the IC50 was > 50 µM (inactive).
`O=C1CC(c2ccco2)Cc2[nH]c(=O)c(C(=O)Nc3ccc(Cl)cc3)cc21` (centres undefined): the IC50 is 3.08 µM.
As to `O=C(Nc1ccc2ccccc2n1)c1ccc(Cl)cc1`, the IC50 is 6.26 µM.
Next, `COc1cc(OC)cc(-n2c(=O)c3sccc3n(CC(=O)Nc3ccc(C)cc3)c2=O)c1`: 6.98 µM; `c1csc(CCN2CCc3nc4cccnc4cc3C2)c1`: > 50 µM (inactive); `O=C(Nc1cccn(Cc2c(Cl)cccc2Cl)c1=O)c1ccccc1[N+](=O)[O-]`: 4.79 µM.
For `CSc1ncccc1C(=O)OCc1ccc(Br)cc1`, the 50% inhibitory concentration (IC50) is 1.98 µM.
Then `O=C(Nc1ccc2c(c1)OCO2)c1[nH]nc2c1CCc1ccccc1-2`, with 8.02 µM.
Next, `CS(=O)(=O)c1ccc(NC(=O)C2CN(c3nc4c(F)cccc4s3)C2)cc1`: 21.3 µM; `CNC(=O)CC1NC(=O)c2csc(n2)-c2ccc(-c3nc(C4=NC(C(=O)N5CCCC5C(N)=O)CO4)cs3)nc2-c2csc(n2)-c2csc(n2)C(C(O)c2ccccc2)NC(=O)CNC(=O)c2nc(sc2COC)C(C(C)C)NC(=O)c2nc1sc2C` (centres undefined): 11.4 µM.
Consider `COc1ccccc1-c1nc(-c2nnn(Cc3ccc(C)cc3)c2C)no1`, for which the IC50 was 5.47 µM.
As for `Fc1cccc(Cn2cc(-c3noc(-c4ccncc4)n3)nn2)c1`, the IC50 was 24.9 µM.
Then `Oc1ccc(Br)cc1CNc1ccc(F)cc1`, with 18.3 µM; and `CCOC(=O)C1C(c2ccc(Br)cc2)C2(C(=O)c3ccccc3C2=O)C2C=Cc3ccccc3N12` (centres undefined), with > 50 µM (inactive).
`CC(C)(C)c1ccc(Cn2nnc3c(=O)[nH]c(C4CCN(S(=O)(=O)c5ccc(S(=O)(=O)NC6CC6)cc5)CC4)nc32)cc1`: the IC50 is 30.9 µM.
Next, `COc1ccc2nc(Nc3nc(-c4cnc(N5CCOCC5)nc4C)cc(=O)[nH]3)nc(C)c2c1`: > 50 µM (inactive); `CC(=O)c1ccc(N2C(=O)N(Cc3cccc([N+](=O)[O-])c3)c3ccccc3S2(=O)=O)cc1`: > 50 µM (inactive).
In the case of `O=S(=O)(O)c1cc2cc3ccccc3cc2[nH]1`, the IC50 is > 50 µM (inactive).
For the compound `N#Cc1c(SCCO)nc(N2CCCC2)c2c1CCCC2`, the 50% inhibitory concentration (IC50) is 6.47 µM.
Turning to `O=C(NCc1ccc(F)cc1)C1CCCN(c2cnc3nccnc3c2)C1` (centres undefined), the IC50 is > 50 µM (inactive).
With `Nc1c(-c2ccc(Cl)cc2)cnc2nc(Sc3ncc(C(F)(F)F)cc3Cl)nn12`, the IC50 was > 50 µM (inactive).
On to `Cc1c(C(=O)c2ccccc2)c2ccccn2c1CCc1ccccn1`, for which the IC50 was > 50 µM (inactive).
Turning to `CC(=O)Nc1ccc(S(=O)(=O)NCc2ccc(C(=O)NCc3ccc(C)cc3)cc2)cc1`, the IC50 was 19.2 µM.
As to `Fc1ccc(Cc2nc(-c3ccc4nncn4c3)no2)cc1`, the half-maximal inhibitory concentration (IC50) is 15.1 µM.
Regarding `Cc1cc(-c2cnc(N(C)C)nc2-c2ccc(CNC(=O)Cc3ccc(F)cc3)cc2)on1`, the IC50 was 28.7 µM.
Then `Cc1ccc2c(c1)c(=O)c(C(=O)c1ccc(F)cc1)cn2CC(=O)Nc1ccc2c(c1)OCCO2`, with 35.9 µM; and `COc1cc(NC(=O)c2ccc3c(c2)OCO3)ccc1-c1cc2ccccc2oc1=O`, with 2.19 µM; and `O=C(COc1ccc2oc3c(c2c1)CCCC3)Nc1ccccn1`, with 24.9 µM.
As for `Cc1ccc(CN2C(=O)c3cc4ccccc4n3CC2(C)C(=O)NCc2ccccc2)o1` (centres undefined), the IC50 is 44.6 µM.
Next, `CCOc1ccc(Nc2cc(C(=O)NCCc3ccccc3)c3ccccc3n2)cc1`: 26 µM; `O=C(Nc1ccc(Br)cn1)c1nc2ccccc2nc1N1CCCCC1`: > 50 µM (inactive); `Cc1nn(-c2cc(N3CCOCC3)ncn2)c(C)c1CCC(=O)Nc1ccc(C(C)C)cc1`: 23 µM.
Regarding `Cc1ccc(-n2cc(C(=O)NCc3cccnc3)nn2)cc1C`, the IC50 was 16.6 µM.
Take `COc1cc([C@@H]2c3cc4c(cc3C[C@@H]3COC(=O)[C@H]32)OCO4)cc(OC)c1OC`: the IC50 was 18.7 µM.
Consider `Cc1cc(C)cc(N(CCC(=O)Nc2ccc(N3CCOCC3)cc2)S(=O)(=O)c2ccc(Cl)cc2)c1`, for which the IC50 was 12.9 µM.
Regarding `C=C(NC(=O)C(=C)NC(=O)c1csc(C2=N[C@@H]3c4csc(n4)[C@H]4NC(=O)c5csc(n5)[C@H]([C@](C)(O)[C@@H](C)O)NC(=O)[C@H]5CSC(=N5)/C(=C/C)NC(=O)C([C@@H](C)O)NC(=O)c5csc(n5)C3(CC2)NC(=O)[C@H](C)NC(=O)C(=C)NC(=O)[C@H](C)NC(=O)C([C@@H](C)CC)N[C@@H]2C=Cc3c(C(C)O)cc(nc3[C@H]2O)C(=O)OC4C)n1)C(N)=O` (some centres undefined), the IC50 was > 50 µM (inactive).
Consider `COc1ccc(-c2[nH]c3ccccc3c2SCCNC(=O)c2ccc(S(=O)(=O)N3CCOCC3)cc2)cc1`, for which the IC50 was 30 µM.
For `COc1ccc(S(=O)(=O)N2CCC3(CC2)OC(=O)Nc2ccccc23)cc1`, the IC50 is 43.4 µM.
As to `CC(=O)Nc1ccc(Cc2nc(-c3ccc4c(c3)nc(C)c(=O)n4C3CCCC3)no2)cc1`, the IC50 was > 50 µM (inactive).
As to `C=C(NC(=O)C(=C)NC(=O)c1csc(-c2ccc3c(n2)-c2csc(n2)-c2csc(n2)C(C(C)C2CO2)NC(=O)C(Cc2ccc(O)cc2)NC(=O)c2csc(n2)C(C(O)c2ccccc2)NC(=O)c2nc(sc2C)C(CC(N)=O)NC(=O)c2csc-3n2)n1)C(=O)O` (centres undefined), the IC50 was 24.9 µM.
Turning to `O=C(c1cn(-c2cccc(F)c2)nn1)N1CCc2ccccc2C1`, the IC50 is 22.8 µM.
For the compound `O=C(CN1C(=O)C2CCCC2=Nc2ccccc21)Nc1cc(F)ccc1F` (centres undefined), the concentration for half-maximal inhibition (IC50) is 13.5 µM.
With `Cn1c2ccccc2c(=O)c2c(=O)n(Cc3ccccc3)c(-c3ccco3)nc21`, the half-inhibitory concentration (IC50) is 1.23 µM.
As for `CCc1nc(N2CCCC2=O)sc1C(=O)Nc1cccc(C(C)=O)c1`, the IC50 was 17.1 µM.
Then `COc1ccccc1-c1nc(-c2nnn(Cc3cccc(F)c3)c2C)no1`, with 10.4 µM; and `Cc1cccc(C(=O)OCC(=O)Nc2ccc3[nH]c(=O)[nH]c3c2)c1C`, with 4.94 µM; and `COc1ccc(-c2nc(Cn3nnc(C(=O)Nc4ccc(C)c(C)c4)c3N)c(C)o2)cc1`, with 2.12 µM.
`COc1ccc(N2C(=O)[C@@H]3[C@H]4c5ccccc5C=CN4C(C(=O)Nc4ccc5c(c4)OCO5)[C@@H]3C2=O)cc1` (some centres undefined): the IC50 was > 50 µM (inactive).
Then `CC(=O)c1cccc(NC(=O)c2ccc(-c3csc(C)n3)cc2)c1`, with 3.13 µM; and `Cc1cc(C#N)c2c(C)ccc(C(C)C)cc1-2`, with 21.4 µM; and `C[C@@H]1O[C@@H](O[C@H]2[C@H](O[C@H]3[C@H](O[C@H]4CC[C@@]5(C)[C@@H](CC[C@]6(C)[C@@H]5CC=C5[C@@H]7CC(C)(C)CC(=O)[C@]7(C)CC[C@]56C)[C@@]4(C)CO)O[C@H](C(=O)O)[C@@H](O)[C@@H]3O)OC[C@@H](O)[C@@H]2O)[C@H](O)[C@H](O)[C@H]1O`, with 48.4 µM.

For orientation: IC50 means the concentration that inhibits the measured activity by half.

These data come from PubChem BioAssay AID1645866 (Buhrlage Lab, Dana-Farber Cancer Institute and Novartis …, 2021).
